One test has as its target T1, human 20S proteasome β5 (Homo sapiens, UniProt P28074).
T1 construct: purchased Boston Biochem
The test can be described thus: 20S Proteasome Assay, β5 selective substrate (Ac-WLA-AMC). The format is biochemical. Particulars: concentration 0.41 μM; typically tested as mannitol esters. How it is done:
(§1) β5 Selective substrate: To 1 μL of test compound dissolved in DMSO in a 384-well black microtiter plate is added 25 μL of assay buffer at 37° C. containing human PA28 activator (Boston Biochem, 12 nM final) with Ac-WLA-AMC (β5 selective substrate) (15 μM final), followed by 25 μL of assay buffer at 37° C. containing human 20S proteasome (Boston Biochem, 0.25 nM final). Assay buffer is composed of 20 mM HEPES, 0.5 mM EDTA and 0.01% BSA, pH7.4. The reaction is followed on a BMG Galaxy plate reader (37° C., excitation 380 nm, emission 460 nm, gain 20). Percent inhibition is calculated relative to 0% inhibition (DMSO) and 100% inhibition (10 μM bortezomib) controls. Compound of formula (I) are typically tested in this assay as their mannitol esters (prepared as described above). The mannitol esters are hydrolyzed to the free active boronic acid species.

For another test, the target named is T2, human 20S proteasome β1 (Homo sapiens, UniProt P28072).
T2 construct: purchased Boston Biochem
Nature of the test: 20S Proteasome Assay, β1 selective substrate (Z-LLE-AMC). Conditions: typically tested as mannitol esters; for inhibition at 0.41 µM: concentration 0.41 μM; for inhibition at 0.33 µM: concentration 0.33 μM. Format: biochemical. How it is done:
as §1, with “β1” for “β5”, “384-well” for “384-well black”, “Z-LLE-AMC ([…]1” for “Ac-WLA-AMC (β5”

This is an account of results in patent publication US9023832B2, “Derivatives of 1-amino-2-cyclopropylethylboronic acid” (Millennium Pharmaceuticals, Inc., priority 2010, dated 2015).

By inhibition is commonly meant the relative decrease from the control value, in per cent.

`CN1C(=O)Cc2cc(S(=O)(=O)N[C@@H](Cc3ccccc3)C(=O)N[C@@H](CC3CC3)B(O)O)ccc21` [Compound 13, {(1R)-2-cyclopropyl-1-[((2S)-2-{[(1-methyl-2-oxo-2,3-dihydro-1H-indol-5-yl)sulfonyl]amino}-3-phenylpropanoyl)amino]ethyl}boronic acid]: the inhibition at 0.41 µM against human 20S proteasome β5 is 83.7%; on human 20S proteasome β1, 66.7%.

With `O=C(c1cccc(S(=O)(=O)N[C@@H](Cc2ccccc2)C(=O)N[C@@H](CC2CC2)B(O)O)c1)c1ccccn1` [Compound 16, ((1R)-2-cyclopropyl-1-{[(2S)-3-phenyl-2-({[3-(pyridin-2-ylcarbonyl)phenyl]sulfonyl}amino)propanoyl]amino}ethyl)boronic acid], the inhibition at 0.41 µM against human 20S proteasome β5 stood at 90.8%; against human 20S proteasome β1, 82.7%.

For `O=C(N[C@@H](Cc1ccccc1)C(=O)N[C@@H](CC1CC1)B(O)O)c1cnccn1` [Compound 12, [(1R)-2-cyclopropyl-1-({(2S)-3-phenyl-2-[(pyrazin-2-ylcarbonyl)amino]propanoyl}amino)ethyl]boronic acid], at human 20S proteasome β5, testing at 0.41 µM gave an inhibition of 81.9%. At human 20S proteasome β1, this compound returned an inhibition at 0.33 µM of 93%.

For `O=C(N[C@@H](CC1CC1)B(O)O)[C@H](Cc1ccccc1)NS(=O)(=O)c1cccc2cnccc12` [Compound 17, [(1R)-2-cyclopropyl-1-({(2S)-2-[(isoquinolin-5-ylsulfonyl)amino]-3-phenylpropanoyl}amino)ethyl]boronic acid], the inhibition at 0.41 µM at human 20S proteasome β5 stood at 89.7%; against human 20S proteasome β1, 71.9%.

For `O=C(N[C@@H](Cc1ccccc1)C(=O)N[C@@H](CC1CC1)B(O)O)c1cc(Cl)ccc1Cl` [Compound 9, [(1R)-2-cyclopropyl-1-({(2S)-2-[(2,5-dichlorobenzoyl)amino]-3-phenylpropanoyl}amino)ethyl]boronic acid], at human 20S proteasome β5, at 0.41 µM the inhibition was 93.3%. Moreover, the inhibition at 0.33 µM against human 20S proteasome β1 stood at 91.1%.

`O=C(N[C@@H](CC1CC1)B(O)O)[C@H](Cc1ccccc1)NS(=O)(=O)c1ccc(-c2cnco2)cc1` [Compound 6, ((1R)-2-cyclopropyl-1-{[(2S)-2-({[4-(1,3-oxazol-5-yl)phenyl]sulfonyl}amino)-3-phenylpropanoyl]amino}ethyl)boronic acid]: the inhibition at 0.41 µM on human 20S proteasome β5 came out at 92.9%; against human 20S proteasome β1, 65.4%.

Consider `O=C(N[C@@H](CC1CC1)B(O)O)[C@H](Cc1ccccc1)NS(=O)(=O)c1ccc2ncsc2c1` [Compound 4, [(1R)-1-({(2S)-2-[(1,3-benzothiazol-6-ylsulfonyl)amino]-3-phenylpropanoyl}amino)-2-cyclopropylethyl]boronic acid], for which the inhibition at 0.41 µM turned out to be 89.8% against human 20S proteasome β5 and 73.2% against human 20S proteasome β1.

Consider `O=C(N[C@@H](CC1CC1)B(O)O)[C@H](Cc1ccccc1)NS(=O)(=O)c1ccc(Oc2cccnc2)cc1` [Compound 2, ((1R)-2-cyclopropyl-1-{[(2S)-3-phenyl-2-({[4-(pyridin-3-yloxy)phenyl]sulfonyl}amino)propanoyl]amino}ethyl)boronic acid], for which the inhibition at 0.41 µM on human 20S proteasome β5 was determined as 89%; at human 20S proteasome β1, 70.7%.

On to `O=C(N[C@@H](CC1CC1)B(O)O)[C@H](Cc1ccccc1)NS(=O)(=O)c1ccc(Oc2ccccn2)cc1` [Compound 1, ((1R)-2-cyclopropyl-1-{[(2S)-3-phenyl-2-({[4-(pyridin-2-yloxy)phenyl]sulfonyl}amino)propanoyl]amino}ethyl)boronic acid], for which the inhibition at 0.41 µM on human 20S proteasome β5 was found to be 91.8%; at human 20S proteasome β1 it was 67.2%.

Turning to `O=C1COc2cc(S(=O)(=O)N[C@@H](Cc3ccccc3)C(=O)N[C@@H](CC3CC3)B(O)O)c(Cl)cc2N1` [Compound 15, {(1R)-1-[((2S)-2-{[(6-chloro-3-oxo-3,4-dihydro-2H-1,4-benzoxazin-7-yl)sulfonyl]amino}-3-phenylpropanoyl)amino]-2-cyclopropylethyl}boronic acid], the inhibition at 0.41 µM was 90.3% on human 20S proteasome β5 and 77.1% against human 20S proteasome β1.

Take `O=C(N[C@@H](CC1CC1)B(O)O)[C@H](Cc1ccccc1)NS(=O)(=O)c1ccc(Oc2ccncc2)cc1` [Compound 14, ((1R)-2-cyclopropyl-1-{[(2S)-3-phenyl-2-({[4-(pyridin-4-yloxy)phenyl]sulfonyl}amino)propanoyl]amino}ethyl)boronic acid]: the figures for the inhibition at 0.41 µM at human 20S proteasome β5 and against human 20S proteasome β1 were 93.1% and 75.7%, respectively.

`O=C(N[C@@H](CC1CC1)B(O)O)[C@H](Cc1ccccc1)NS(=O)(=O)c1cccc(Oc2ccc(C(F)(F)F)cn2)c1` [Compound 7, {(1R)-2-cyclopropyl-1-[((2S)-3-phenyl-2-{[(3-{[5-(trifluoromethyl)pyridin-2-yl]oxy}phenyl)sulfonyl]amino}propanoyl)amino]ethyl}boronic acid]: the inhibition at 0.41 µM on human 20S proteasome β5 stood at 93%; against human 20S proteasome β1 it was 81.3%.
